Entries after “also recorded” stand apart in the source; their conditions may differ. Values belong to the compound of their own block, whether it stands above or below them. Bridge positions count the residues as written; N and C are the ends. Square brackets hold non-standard residues; d marks the D form. Peptide text beside a SMILES is read from it. NMeNle = CCCC[C@H](NC)C(=O)O; NMeA = CN[C@@H](C)C(=O)O
Experiments:
HepG2 cells = assay: HepG2 cell viability, CCK-8 assay; assay type: cell-based, human; conditions: HepG2, 24 h; for effect on cell viability: various concentrations tested; for concentration without significant effect on cell viability / concentration significantly reducing cell viability: CCK-8
Description: We also evaluated the acute cytotoxicity of the BMS and Aurigene compounds by testing the effects of compound treatment on the viability of HepG2 cell line. […] The purpose of using HepG2 cells, thus, would allow for evaluation of the parent molecules and potential metabolites for cytotoxicity. The cells were treated with the compounds for 24 h and then the cell viability was assessed by the CCK-8 assay (Fig. 7C).
The acute cytotoxicity of the test compounds was also evaluated by administering the test compounds to human hepatoma (HepG2) cells and assessing their viability (metabolic viability) using the CCK-8 assay (based on WST-8). HepG2 cells are commonly used in the early screening stages for new chemical entities, and the CCK-8 assay has been well established as a sensitive and reliable indicator for cellular metabolic activity (viability) for this purpose. HepG2 cells were obtained from ATCC (HB-8065; Manassas, VA) and maintained in DMEM culture medium in a water-jacketed incubator (5% CO2, 37 °C). […] At this time point, cells were treated with WST-8 based on the manufacturer’s protocol (CCK-8 kit, Dojindo Molecular Technologies, Rockville, MD). Cell viability calculations were also carried out according to the manufacturer’s protocol, which included accounting for potential interference from test compounds, and comparisons to appropriate controls. GraphPad Prism was used for data analysis and graphical representation.

Jurkat cells = assay: Jurkat cell viability, CellTiter-Glo; assay type: cell-based; conditions: 24 h; for effect on cell viability: concentrations tested; for concentration significantly decreasing cell viability: vs DMSO control
PD-1/PD-L1 interface = PD-1/PD-L1 interface (Homo sapiens, UniProt Q9NZQ7); assay: Binding to the PD-1/PD-L1 interface (method not given)
[1] = system: peripheral blood mononuclear cells (PBMCs); assay: IFN-γ production by SEB-stimulated PBMCs (ELISA); assay type: cell-based, human
[2] = system: PD-1 negative Jurkat T cells; assay: Counter-screen NFAT luciferase reporter in PD-1 negative Jurkat T cells; assay type: cell-based; conditions: 24.5 μM and 49 μM
[3] = system: peripheral blood mononuclear cells (PBMCs); assay type: cell-based, human
CHO cells = assay: CHO cell viability, CellTiter-Glo; conditions: 24 h; for concentration significantly reducing cell viability: vs DMSO control
Fc-B7-1 = biological target: T1, Fc-B7-1 (Homo sapiens, UniProt P33681); assay: SPR binding to captured Fc-B7-1 (specificity)
T1 sequence (P33681 35-242 limits assumed): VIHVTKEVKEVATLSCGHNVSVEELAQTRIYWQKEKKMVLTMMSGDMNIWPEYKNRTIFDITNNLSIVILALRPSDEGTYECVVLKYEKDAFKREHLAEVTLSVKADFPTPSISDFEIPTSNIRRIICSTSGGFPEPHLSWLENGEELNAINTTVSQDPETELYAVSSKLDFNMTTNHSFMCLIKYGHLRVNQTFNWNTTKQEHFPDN

mouse splenocytes = system: mouse splenocytes; design: method as in earlier work; conditions: CFSE proliferation assay with recombinant PD-L1; cited from earlier work
Fc-PD-L1 = Fc-PD-L1 (Homo sapiens, UniProt Q9NZQ7); assay: SPR binding to captured Fc-PD-L1; conditions: Fc-PD-L1 captured on Protein A chip, 25 °C
PD-1/PD-L1 binding [4] = biological target: T2, PD-1/PD-L1 binding (Homo sapiens, UniProt Q9NZQ7); assay: PD-1/PD-L1 ELISA competition assay, reverse configuration (PD-1 coated, biotinylated PD-L1); assay type: biochemical; conditions: biotin tagged PD-L1
Target sequence in this assay (Q9NZQ7 19-238 limits assumed): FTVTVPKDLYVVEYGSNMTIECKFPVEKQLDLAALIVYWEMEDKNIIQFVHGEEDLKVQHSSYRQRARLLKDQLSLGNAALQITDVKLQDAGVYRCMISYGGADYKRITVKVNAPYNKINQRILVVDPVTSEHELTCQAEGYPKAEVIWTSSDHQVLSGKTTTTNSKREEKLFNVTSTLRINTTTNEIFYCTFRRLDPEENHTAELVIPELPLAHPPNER

PD-L1 [5] = biological target: T3, PD-L1 (Homo sapiens, UniProt Q9NZQ7); assay: Microscale thermophoresis (MST) binding to labeled PD-L1; conditions: labeled PD-L1 60 nM
T3 construct: human PD-L1 (residues 18–134) was cloned into pET21b vector; made in house

human PD-1 protein = human PD-1 protein (Homo sapiens, UniProt Q15116); assay: DSF of PD-1; assay type: binding
PD-L1 [6] = biological target: T3, PD-L1; assay: 1D NMR STD and WaterLOGSY binding; conditions: 12 µM PD-L1, 200 µM compound
Description: In addition, we also employed 1D NMR-based methods, saturation transfer difference (STD) and WaterLOGSY techniques, to unambiguously rule-out the binding of Aurigene-1 to PD-L1 protein. STD and WaterLOGSY are popular ligand-based approaches to detect the binding of protein-protein inhibitors.
NMR samples contained 12 µM of protein, 200 µM of compound in 1x PBS (phosphate-buffered saline buffer, pH 7.5) and 0.25 mM 2,2-dimethyl-2-silapentane-5-sulfonate-d6 sodium salt (DSS-d6) as an NMR internal reference in 95/5% H2O/D2O or 100% D2O. […] NMR spectroscopy was performed at the Nanuc NMR Centre on a 2.2 K pumped-800 MHz Oxford magnet updated to a Bruker Neo-Advance IV console equipped with a 5 mm cryoprobe and SampleJet robotics.
Fig. S3: STD and WaterLOGSY experiments of PD-L1 binding to Aurigene-1. Blue - 1D spectrum of Aurigene-1, Red and Green -STD and WaterLOGSY spectra respectively of 12 μM of PD-L1 with 200 μM of Aurigene-1

PD-1/PD-L1 binding [7] = biological target: T2, PD-1/PD-L1 binding; assay: PD-1/PD-L1 ELISA competition assay (PD-L1 coated, biotinylated PD-1); assay type: biochemical; design: purchased R&D Systems (Fc-PD-L1); Acro Biosystems (biotinylated PD-1)
Target sequence in this assay (Q9NZQ7 19-239 limits assumed): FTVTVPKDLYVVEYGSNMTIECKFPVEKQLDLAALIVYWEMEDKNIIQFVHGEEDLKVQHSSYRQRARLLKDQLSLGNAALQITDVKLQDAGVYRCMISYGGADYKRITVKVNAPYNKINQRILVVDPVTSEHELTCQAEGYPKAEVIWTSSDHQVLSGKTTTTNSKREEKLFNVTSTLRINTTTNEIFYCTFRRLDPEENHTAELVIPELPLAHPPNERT

PD-L1 [8] = biological target: T3, PD-L1; assay: Differential scanning fluorimetry (DSF) of PD-L1; assay type: binding; conditions: PD-L1 10 µM, compound 50 µM
[9] = system: PD-1/NFAT reporter Jurkat cells co-cultured with TCR activator/PD-L1-CHO cells; assay: Bioluminescent PD-1/PD-L1 cell-based assay (NFAT luciferase reporter)
PD-1/PD-L1 = conditions: read-out: IC50 (HTRF); original disclosure; cited from earlier work

T3 sequence (Q9NZQ7 18-134): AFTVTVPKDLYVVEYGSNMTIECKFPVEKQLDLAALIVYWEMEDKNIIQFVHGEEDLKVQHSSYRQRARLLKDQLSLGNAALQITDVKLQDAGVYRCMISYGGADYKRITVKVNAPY
Chain of human PD-1 protein (Q15116 25-288): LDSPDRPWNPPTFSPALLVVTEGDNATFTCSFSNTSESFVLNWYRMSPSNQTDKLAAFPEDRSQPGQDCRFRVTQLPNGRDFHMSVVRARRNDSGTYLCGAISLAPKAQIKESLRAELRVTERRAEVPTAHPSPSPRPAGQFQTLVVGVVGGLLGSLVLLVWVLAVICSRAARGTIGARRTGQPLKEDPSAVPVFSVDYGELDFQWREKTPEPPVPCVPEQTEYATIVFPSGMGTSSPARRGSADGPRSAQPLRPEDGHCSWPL
Chain of PD-1/PD-L1 interface (Q9NZQ7 19-290): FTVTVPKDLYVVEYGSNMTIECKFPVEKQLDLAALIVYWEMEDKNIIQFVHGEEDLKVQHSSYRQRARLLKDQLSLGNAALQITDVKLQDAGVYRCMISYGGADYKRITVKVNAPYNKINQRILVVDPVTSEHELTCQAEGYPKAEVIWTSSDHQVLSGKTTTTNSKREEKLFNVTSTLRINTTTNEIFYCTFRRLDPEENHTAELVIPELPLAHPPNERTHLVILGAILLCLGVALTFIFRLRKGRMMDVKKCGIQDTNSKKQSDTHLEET
Chain of Fc-PD-L1 (Q9NZQ7 19-238 limits assumed): as the sequence (Q9NZQ7 19-238 limits assumed) above

Structure (SMILES): CCCC[C@H]1C(=O)N(C)[C@@H](CCCC)C(=O)N[C@@H](CCCNC(=N)N)C(=O)N[C@H](C(=O)NCC(N)=O)CSCC(=O)N[C@@H](Cc2ccccc2)C(=O)N(C)[C@@H](C)C(=O)N[C@@H](CC(N)=O)C(=O)N2CCC[C@H]2C(=O)N[C@@H](Cc2cnc[nH]2)C(=O)N[C@@H](CC(C)C)C(=O)N[C@@H](CO)C(=O)N[C@@H](Cc2c[nH]c3ccccc23)C(=O)N[C@@H](CO)C(=O)N[C@@H](Cc2c[nH]c3ccccc23)C(=O)N1C [BMSpep-57] ({CH2CO}-F[NMeA]NPHLSWSW[NMeNle][NMeNle]RCG-NH2; thioether N-14)
effect on cell viability (HepG2 cells): did not show any effects on the cell viability
effect on cell viability (Jurkat cells): did not show any effect on the cell viability

Structure (SMILES): Cc1ccc2ccccc2c1CN1CCN(c2c([N+](=O)[O-])c(=O)n(C)c3ccccc23)CC1 [Compound A]
binding to the PD-1/PD-L1 interface (PD-1/PD-L1 interface): did not bind to the PD-1/PD-L1 interface
fold IFN-γ production vs untreated cells [1]: approximately 1.2 fold
concentration without significant effect on cell viability (HepG2 cells): ≤ 90 µM

Structure (SMILES): COc1cc(OCc2cccc(-c3ccccc3)c2C)cc(OC)c1CNCCO [BMS-103]
luminescence of PD-1 negative Jurkat cells [2]: substantially low
IL-2 production vs positive control [3]: significantly lower levels of IL-2 than the positive control
concentration significantly reducing cell viability (HepG2 cells): ≥ 12.2 µM
concentration without significant effect on cell viability (HepG2 cells): up to 2.4 µM
concentration completely abolishing cell viability (Jurkat cells): ≥ 2.4 µM
concentration significantly decreasing cell viability (Jurkat cells): 0.4 µM
concentration significantly reducing cell viability (CHO cells): ≥ 12.2 µM
binding with captured Fc-B7-1 (Fc-B7-1): None of the BMS inhibitors (BMSpep-57, BMS-103 and BMS-142) showed binding

Structure (SMILES): CC(O)[C@H](NC(=O)N[C@@H](CC(N)=O)c1nc([C@@H](N)CO)no1)C(=O)O (some centres unmarked) [Aurigene-1]
rescue of mouse splenocyte proliferation (mouse splenocytes): 97%
effect on IL-2 production [3]: cannot enhance IL-2 production
Rmax (maximum binding response) (Fc-PD-L1): 0.78 ± 0.36 RU
inhibition of PD-1/PD-L1 binding, reverse configuration (PD-1/PD-L1 binding [4]): did not show inhibition of PD-1/PD-L1 binding
binding to PD-L1 (MST fluorescence response) (PD-L1 [5]): no change in fluorescence
thermal stability of PD-1 protein (human PD-1 protein): did not increase the thermal stability of PD-1 protein; also recorded: did not induce thermal stability to the human PD-1 protein
binding to PD-L1 (STD, WaterLOGSY NMR) (PD-L1 [6]): does not bind to PD-L1 protein
effect on cell viability (HepG2 cells): did not show any effects on the cell viability
inhibition of PD-1/PD-L1 binding (PD-1/PD-L1 binding [7]; 7.8 µM to 500 µM): did not inhibit the PD-1/PD-L1 binding
shift of Tm of PD-L1 (PD-L1 [8]): 0.7 ± 0.1 °C
effect on cell viability (Jurkat cells): did not show any effect on the cell viability
NFAT activity ([9]; 55.5 μM, 27.8 μM, 13.9 μM, 2.8 μM and 1.4 μM): none of these concentrations facilitated NFAT activity

inhibition at 0.3 µM (PD-1/PD-L1 binding [7]; at 300 nM): 98.1%
Structure (SMILES): CCCC[C@H]1C(=O)N(C)[C@@H](CCCC)C(=O)N[C@@H](CCCNC(=N)N)C(=O)N[C@H](C(=O)NCC(N)=O)CSCC(=O)N[C@@H](Cc2ccccc2)C(=O)N(C)[C@@H](C)C(=O)N[C@@H](CC(N)=O)C(=O)N2CCC[C@H]2C(=O)N[C@@H](Cc2c[nH]cn2)C(=O)N[C@@H](CC(C)C)C(=O)N[C@@H](CO)C(=O)N[C@@H](Cc2c[nH]c3ccccc23)C(=O)N[C@@H](CO)C(=O)N[C@@H](Cc2c[nH]c3ccccc23)C(=O)N1C [BMSpep-57] ({CH2CO}-F[NMeA]NPHLSWSW[NMeNle][NMeNle]RCG-NH2; thioether N-14; N-terminus and C-terminus assumed)

Structure (SMILES): COc1cc(OCc2cccc(-c3ccccc3)c2C#N)cc(OC)c1CNCCO [BMS-142]
IC50 (PD-1/PD-L1): 6 to 100 nM
concentration significantly reducing cell viability (HepG2 cells): ≥ 48 µM
concentration without any effect on cell viability (Jurkat cells): up to 2.4 µM
concentration significantly decreasing cell viability (Jurkat cells): ≥ 12 µM
concentration without any effect on cell viability (CHO cells): up to 2.4 µM
concentration significantly reducing cell viability (CHO cells): ≥ 12 µM
NFAT activity vs cells only ([9]; 12.3 μM, 2.4 μM and […]): no change in NFAT activity
NFAT activity (interaction with PD-1/PD-L1) ([9]; 24 µM and 48 µM): sometimes interacted weakly with PD-1/PD-L1, although this was not statistically significant
binding with captured Fc-B7-1 (Fc-B7-1): None of the BMS inhibitors (BMSpep-57, BMS-103 and BMS-142) showed binding

Reference: article PMC6712002, “Comprehensive in vitro characterization of PD-L1 small molecule inhibitors” (Scientific Reports, 2019)
